The record followed here is patent publication US9828369B2, “Isoquinoline derivatives useful as inhibitors of diacylglyceride O-acyltransferase 2” (Merck Sharp & Dohme Corp., priority 2014, dated 2017).

For orientation: IC50 means the concentration that gives 50% inhibition.

The target of one assay is hDGAT2 (Homo sapiens (Human), UniProt Q96PD7). The experiment in a line: DGAT2 enzymatic activity assay (triolein formation, LC/MS/MS).
hDGAT2, sequence (Q96PD7 whole entry): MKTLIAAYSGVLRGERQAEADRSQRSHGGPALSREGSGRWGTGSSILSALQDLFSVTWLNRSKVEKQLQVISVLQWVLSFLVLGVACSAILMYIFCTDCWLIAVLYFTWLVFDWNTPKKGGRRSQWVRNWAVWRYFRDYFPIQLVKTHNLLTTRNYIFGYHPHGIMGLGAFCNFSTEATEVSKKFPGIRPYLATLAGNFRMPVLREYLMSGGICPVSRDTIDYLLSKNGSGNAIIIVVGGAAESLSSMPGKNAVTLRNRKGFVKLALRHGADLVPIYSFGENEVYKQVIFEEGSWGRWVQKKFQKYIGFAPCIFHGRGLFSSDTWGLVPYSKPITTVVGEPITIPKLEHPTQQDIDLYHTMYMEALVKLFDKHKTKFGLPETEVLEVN
Details: not given
With `COc1cccc(-c2ccc(CNC(=O)c3ccc(-n4cccn4)cc3)c3cnccc23)c1` [Example 65, N-((5-(3-methoxyphenyl)isoquinolin-8-yl)methyl)-4-(1H-pyrazol-1-yl)benzamide], the half-inhibitory concentration (IC50) came out at 2000 nM.

The assay is the same for the next values; noted with them: read-out: IC50 values for inhibition of DGAT2; membrane prep of Sf-9 cells expressing hDGAT2; 25 μM diolein, 10 μM oleoyl-CoA; room temperature; triolein by LC/MS/MS.
On to `COc1cccc(-c2ccc(CNC(=O)c3cncc4ccccc34)c3cnccc23)c1` [Example 33, N-((5-(3-methoxyphenyl)isoquinolin-8-yl)methyl)isoquinoline-4-carboxamide], for which the IC50 was found to be 3410 nM.
With `COc1cccc(-c2ccc(CNC(=O)c3cccc(-n4cccn4)c3)c3cnccc23)c1` [Example 34, N-((5-(3-methoxyphenyl)isoquinolin-8-yl)methyl)-3-(1H-pyrazol-1-yl)benzamide], the half-maximal inhibitory concentration (IC50) turned out to be 7360 nM.
Still for that read-out and setting: for `CCc1cc(C(=O)NCc2ccc(-c3cccc(OC)c3)c3ccncc23)n(C)n1` [Example 35, 3-ethyl-N-((5-(3-methoxyphenyl)isoquinolin-8-yl)methyl)-1-methyl-1H-pyrazole-5-carboxamide] the value was 3440 nM; for `COc1cccc(-c2ccc(CNC(=O)c3ccc4c(c3)OCCO4)c3cnccc23)c1` [Example 36, N-((5-(3-methoxyphenyl)isoquinolin-8-yl)methyl)-2,3-dihydrobenzo[b][1,4]dioxine-6-carboxamide], 3010 nM; for `COc1cccc(-c2ccc(CNC(=O)c3cnco3)c3cnccc23)c1` [Example 37, N-((5-(3-methoxyphenyl)isoquinolin-8-yl)methyl)oxazole-5-carboxamide], 1270 nM.
In the case of `COc1cccc(-c2ccc(CNC(=O)c3ncco3)c3cnccc23)c1` [Example 38, N-((5-(3-methoxyphenyl)isoquinolin-8-yl)methyl)oxazole-2-carboxamide], the IC50 came to 3200 nM.
The same measure, in the same setting: then `COc1cccc(-c2ccc(CNC(=O)c3noc4c3CCCC4)c3cnccc23)c1` [Example 39, N-((5-(3-methoxyphenyl)isoquinolin-8-yl)methyl)-4,5,6,7-tetrahydrobenzo[d]isoxazole-3-carboxamide], with 9390 nM; and `COc1cccc(-c2ccc(CNC(=O)c3ccc4nccnc4c3)c3cnccc23)c1` [Example 40, N-((5-(3-methoxyphenyl)isoquinolin-8-yl)methyl)quinoxaline-6-carboxamide], with 6000 nM.
Regarding `COc1cccc(-c2ccc(CNC(=O)C3CCCN(c4ccccn4)C3)c3cnccc23)c1` (centres unmarked) [Example 41, N-((5-(3-methoxyphenyl)isoquinolin-8-yl)methyl)-1-(pyridin-2-yl)piperidine-3-carboxamide], the IC50 amounted to 7780 nM.
`COc1cccc(-c2ccc(CNC(=O)c3nn(C)c(=O)c4ccccc34)c3cnccc23)c1` [Example 43, N-((5-(3-methoxyphenyl)isoquinolin-8-yl)methyl)-3-methyl-4-oxo-3,4-dihydrophthalazine-1-carboxamide]: the IC50 worked out at 1570 nM.
Regarding `CCCc1cc(C(=O)NCc2ccc(-c3cccc(OC)c3)c3ccncc23)n(C)n1` [Example 44, N-((5-(3-methoxyphenyl)isoquinolin-8-yl)methyl)-1-methyl-3-propyl-1H-pyrazole-5-carboxamide], the concentration for half-maximal inhibition (IC50) amounted to 1430 nM.
For `COc1cccc(-c2ccc(CNC(=O)c3cccc4ncccc34)c3cnccc23)c1` [Example 45, N-((5-(3-methoxyphenyl)isoquinolin-8-yl)methyl)quinoline-5-carboxamide], the concentration for half-maximal inhibition (IC50) turned out to be 745 nM.
Take `COc1cccc(-c2ccc(CNC(=O)Cc3ccc(C(F)(F)F)cc3)c3cnccc23)c1` [Example 46, N-((5-(3-methoxyphenyl)isoquinolin-8-yl)methyl)-2-(4-(trifluoromethyl)phenyl)acetamide]: the IC50 amounted to 317 nM.
The same measure, in the same setting: then `COc1cccc(-c2ccc(CNC(=O)Cc3ccc(Cl)cc3)c3cnccc23)c1` [Example 47, 2-(4-chlorophenyl)-N-((5-(3-methoxyphenyl)isoquinolin-8-yl)methyl)acetamide], with 1400 nM; and `COc1cccc(-c2ccc(CNC(=O)Cc3cccc(C(F)(F)F)c3)c3cnccc23)c1` [Example 48, N-((5-(3-methoxyphenyl)isoquinolin-8-yl)methyl)-2-(3-(trifluoromethyl)phenyl)acetamide], with 291 nM.
Still for that read-out and setting: then `COc1cccc(-c2ccc(CNC(=O)Cc3ccccc3F)c3cnccc23)c1` [Example 49, 2-(2-fluorophenyl)-N-((5-(3-methoxyphenyl)isoquinolin-8-yl)methyl)acetamide], with 993 nM; and `COc1cccc(-c2ccc(CNC(=O)Cc3ccccc3C(F)(F)F)c3cnccc23)c1` [Example 51, N-((5-(3-methoxyphenyl)isoquinolin-8-yl)methyl)-2-(2-(trifluoromethyl)phenyl)acetamide], with 1750 nM.
Turning to `COc1cccc(-c2ccc(CNC(=O)Cc3cccc(F)c3)c3cnccc23)c1` [Example 52, 2-(3-fluorophenyl)-N-((5-(3-methoxyphenyl)isoquinolin-8-yl)methyl)acetamide], the IC50 was 3710 nM.
The same measure, in the same setting: for `COc1cccc(-c2ccc(CNC(=O)Cc3ccc(Oc4ccccc4)cc3)c3cnccc23)c1` [Example 53, N-((5-(3-methoxyphenyl)isoquinolin-8-yl)methyl)-2-(4-phenoxyphenyl)acetamide] the value was 2160 nM; for `COc1cccc(-c2ccc(CNC(=O)Cc3cccc(Cl)c3)c3cnccc23)c1` [Example 54, 2-(3-chlorophenyl)-N-((5-(3-methoxyphenyl)isoquinolin-8-yl)methyl)acetamide], 2760 nM.
The same measure, in the same setting: for `COc1cccc(-c2ccc(CNC(=O)Cc3ccccc3Oc3ccccc3)c3cnccc23)c1` [Example 55, N-((5-(3-methoxyphenyl)isoquinolin-8-yl)methyl)-2-(2-phenoxyphenyl)acetamide] the value was 306 nM; for `COc1cccc(-c2ccc(CNC(=O)Cc3cccc(S(C)(=O)=O)c3)c3cnccc23)c1` [Example 56, N-((5-(3-methoxyphenyl)isoquinolin-8-yl)methyl)-2-(3-(methylsulfonyl)phenyl)acetamide], 1640 nM.
Take `COc1cccc(-c2ccc(CNC(=O)Cc3ccc(OC(F)(F)F)cc3)c3cnccc23)c1` [Example 57, N-((5-(3-methoxyphenyl)isoquinolin-8-yl)methyl)-2-(4-(trifluoromethoxy)phenyl)acetamide]: the half-maximal inhibitory concentration (IC50) was found to be 4450 nM.
The same measure, in the same setting: then `COc1cccc(-c2ccc(CNC(=O)Cc3ccc(F)c(F)c3F)c3cnccc23)c1` [Example 58, N-((5-(3-methoxyphenyl)isoquinolin-8-yl)methyl)-2-(2,3,4-trifluorophenyl)acetamide], with 7290 nM; and `COc1cccc(-c2ccc(CNC(=O)Cc3cc(F)c(F)cc3F)c3cnccc23)c1` [Example 59, N-((5-(3-methoxyphenyl)isoquinolin-8-yl)methyl)-2-(2,4,5-trifluorophenyl)acetamide], with 550 nM; and `COc1cccc(-c2ccc(CNC(=O)Cc3cc(F)c(F)c(F)c3)c3cnccc23)c1` [Example 60, N-((5-(3-methoxyphenyl)isoquinolin-8-yl)methyl)-2-(3,4,5-trifluorophenyl)acetamide], with 2140 nM.
As to `COc1cccc(-c2ccc(CNC(=O)Cc3ccccc3OC(F)(F)F)c3cnccc23)c1` [Example 61, N-((5-(3-methoxyphenyl)isoquinolin-8-yl)methyl)-2-(2-(trifluoromethoxy)phenyl)acetamide], the IC50 is 758 nM.
With `COc1cccc(-c2ccc(CNC(=O)Cc3cccc(OC(F)(F)F)c3)c3cnccc23)c1` [Example 62, N-((5-(3-methoxyphenyl)isoquinolin-8-yl)methyl)-2-(3-(trifluoromethoxy)phenyl)acetamide], the IC50 came out at 602 nM.
The same measure, in the same setting: then `COc1cccc(-c2ccc(CNC(=O)Cc3ccc4c(c3)OCCO4)c3cnccc23)c1` [Example 63, 2-(2,3-dihydrobenzo[b][1,4]dioxin-6-yl)-N-((5-(3-methoxyphenyl)isoquinolin-8-yl)methyl)acetamide], with 3050 nM; and `COc1cccc(-c2ccc(CNC(=O)Cc3csc(-c4ccc(F)cc4)n3)c3cnccc23)c1` [Example 64, 2-(2-(4-fluorophenyl)thiazol-4-yl)-N-((5-(3-methoxyphenyl)isoquinolin-8-yl)methyl)acetamide], with 609 nM.
The same measure, in the same setting: for `COc1cccc(-c2ccc(CNC(=O)c3cn(-c4ccccc4)nc3-c3ccccc3)c3cnccc23)c1` [Example 66, N-((5-(3-methoxyphenyl)isoquinolin-8-yl)methyl)-1,3-diphenyl-1H-pyrazole-4-carboxamide] the value was 479 nM.
The same measure, in the same setting: then `COc1cccc(-c2ccc(CNC(=O)c3ccc(N4CCCC4=O)cc3)c3cnccc23)c1` [Example 67, N-((5-(3-methoxyphenyl)isoquinolin-8-yl)methyl)-4-(2-oxopyrrolidin-1-yl)benzamide], with 1950 nM; and `COc1cccc(-c2ccc(CNC(=O)c3cccc(-n4nc(C)cc4C)c3)c3cnccc23)c1` [Example 68, 3-(3,5-dimethyl-1H-pyrazol-1-yl)-N-((5-(3-methoxyphenyl)isoquinolin-8-yl)methyl)benzamide], with 1650 nM; and `COc1cccc(-c2ccc(CNC(=O)c3ccnc(-n4cnnn4)c3)c3cnccc23)c1` [Example 69, N-((5-(3-methoxyphenyl)isoquinolin-8-yl)methyl)-2-(1H-tetrazol-1-yl)isonicotinamide], with 3410 nM.
On to `COc1cccc(-c2ccc(CNC(=O)c3coc(-c4ccccc4)n3)c3cnccc23)c1` [Example 70, N-((5-(3-methoxyphenyl)isoquinolin-8-yl)methyl)-2-phenyloxazole-4-carboxamide], for which the half-inhibitory concentration (IC50) amounted to 2330 nM.
On to `COc1cccc(-c2ccc(CNC(=O)c3noc(-c4ccccc4)n3)c3cnccc23)c1` [Example 72, N-((5-(3-methoxyphenyl)isoquinolin-8-yl)methyl)-5-phenyl-1,2,4-oxadiazole-3-carboxamide], for which the 50% inhibitory concentration (IC50) is 3890 nM.
On the same count and under the same terms, then `COc1cccc(-c2ccc(CNC(=O)c3c[nH]c(-c4ccccc4)n3)c3cnccc23)c1` [Example 73, N-((5-(3-methoxyphenyl)isoquinolin-8-yl)methyl)-2-phenyl-1H-imidazole-4-carboxamide], with 5840 nM.
